{"source": "the supplement of paper PMC10307832", "test_in_all_cases": "relative viability (nuclei count vs DMSO), 5 days (fraction); higher = more cells survive", "key": {"SW 900": {"system": "SW 900", "outline": "(§1)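 Dosing by pin tool came one day after lung cancer cell lines were seeded in 1536-well plates, using either one drug or a fixed anchor-drug dose plus five library-drug doses (not always all listed) in √10 steps. After 5 days, nuclei were counted on 4× images. Relative viability is treated-well nuclei count divided by vehicle-well nuclei count, and values are medians of duplicate plates.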"}, "NCI-H441": {"system": "NCI-H441", "outline": "as §1"}, "HCC-44": {"system": "HCC-44", "outline": "as §1"}, "NCI-H1944": {"system": "NCI-H1944", "outline": "as §1"}, "NCI-H2126": {"system": "NCI-H2126", "outline": "as §1"}, "NCI-H322M": {"system": "NCI-H322M", "outline": "as §1"}, "NCI-H1666": {"system": "NCI-H1666", "outline": "as §1"}, "COR-L23": {"system": "COR-L23", "outline": "as §1"}, "EPLC-272H": {"system": "EPLC-272H", "outline": "as §1"}, "NCI-H2087": {"system": "NCI-H2087", "outline": "as §1"}, "SW 1573": {"system": "SW 1573", "outline": "as §1"}, "NCI-H2023": {"system": "NCI-H2023", "outline": "as §1"}, "PC-14": {"system": "PC-14", "outline": "as §1"}, "ChaGo-K-1": {"system": "ChaGo-K-1", "outline": "as §1"}, "NCI-H460": {"system": "NCI-H460", "outline": "as §1"}, "HOP-62": {"system": "HOP-62", "outline": "as §1"}, "NCI-H1355": {"system": "NCI-H1355", "outline": "as §1"}, "EMC-BAC-2": {"system": "EMC-BAC-2", "outline": "as §1"}, "LCLC-103H": {"system": "LCLC-103H", "outline": "as §1"}, "NCI-H3122": {"system": "NCI-H3122", "outline": "as §1"}, "NCI-H596": {"system": "NCI-H596", "outline": "as §1"}, "NCI-H2405": {"system": "NCI-H2405", "outline": "as §1"}, "NCI-H1975": {"system": "NCI-H1975", "outline": "as §1"}, "LK-2": {"system": "LK-2", "outline": "as §1"}}, "data": [{"smiles": "Nc1cccc2c1CN(C1CCC(=O)NC1=O)C2=O", "note": "(configuration not stated) [Lenalidomide] + Nc1ncn([C@H]2C[C@H](O)[C@@H](CO)O2)c(=O)n1 [Decitabine] (partner 2 µM)", "values": [{"measurement": "relative viability", "setting": "SW 900; first compound 2.53 µM", "result": 0.51}, {"measurement": "relative viability", "setting": "SW 900; first compound 8 µM", "result": 0.532}, {"measurement": "relative viability", "setting": "NCI-H441; first compound 0.253 µM", "result": 0.233}, {"measurement": "relative viability", "setting": "NCI-H441; first compound 0.8 µM", "result": 0.229}, {"measurement": "relative viability", "setting": "NCI-H441; first compound 2.53 µM", "result": 0.264}, {"measurement": "relative viability", "setting": "NCI-H441; first compound 8 µM", "result": 0.262}, {"measurement": "relative viability", "setting": "HCC-44; first compound 0.253 µM", "result": 0.946}, {"measurement": "relative viability", "setting": "HCC-44; first compound 0.8 µM", "result": 0.781}, {"measurement": "relative viability", "setting": "HCC-44; first compound 2.53 µM", "result": 1.01}, {"measurement": "relative viability", "setting": "HCC-44; first compound 8 µM", "result": 0.853}, {"measurement": "relative viability", "setting": "NCI-H1944; first compound 0.253 µM", "result": 0.446}, {"measurement": "relative viability", "setting": "NCI-H1944; first compound 2.53 µM", "result": 0.457}, {"measurement": "relative viability", "setting": "NCI-H1944; first compound 8 µM", "result": 0.393}, {"measurement": "relative viability", "setting": "NCI-H2126; first compound 0.253 µM", "result": 0.645}, {"measurement": "relative viability", "setting": "NCI-H2126; first compound 0.8 µM", "result": 0.611}, {"measurement": "relative viability", "setting": "NCI-H2126; first compound 2.53 µM", "result": 0.578}, {"measurement": "relative viability", "setting": "NCI-H2126; first compound 8 µM", "result": 0.516}, {"measurement": "relative viability", "setting": "NCI-H322M; first compound 0.253 µM", "result": 0.702}, {"measurement": "relative viability", "setting": "NCI-H322M; first compound 0.8 µM", "result": 0.78}, {"measurement": "relative viability", "setting": "NCI-H322M; first compound 2.53 µM", "result": 0.725}, {"measurement": "relative viability", "setting": "NCI-H322M; first compound 8 µM", "result": 0.688}, {"measurement": "relative viability", "setting": "NCI-H1666; first compound 0.253 µM", "result": 0.791}, {"measurement": "relative viability", "setting": "NCI-H1666; first compound 0.8 µM", "result": 0.528}, {"measurement": "relative viability", "setting": "NCI-H1666; first compound 2.53 µM", "result": 0.772}, {"measurement": "relative viability", "setting": "NCI-H1666; first compound 8 µM", "result": 0.647}, {"measurement": "relative viability", "setting": "COR-L23; first compound 0.253 µM", "result": 0.416}, {"measurement": "relative viability", "setting": "COR-L23; first compound 0.8 µM", "result": 0.395}, {"measurement": "relative viability", "setting": "COR-L23; first compound 2.53 µM", "result": 0.491}, {"measurement": "relative viability", "setting": "COR-L23; first compound 8 µM", "result": 0.409}, {"measurement": "relative viability", "setting": "EPLC-272H; first compound 0.253 µM", "result": 0.382}, {"measurement": "relative viability", "setting": "EPLC-272H; first compound 0.8 µM", "result": 0.381}, {"measurement": "relative viability", "setting": "EPLC-272H; first compound 2.53 µM", "result": 0.413}, {"measurement": "relative viability", "setting": "EPLC-272H; first compound 8 µM", "result": 0.32}, {"measurement": "relative viability", "setting": "NCI-H2087; first compound 0.253 µM", "result": 0.31}, {"measurement": "relative viability", "setting": "NCI-H2087; first compound 2.53 µM", "result": 0.303}, {"measurement": "relative viability", "setting": "NCI-H2087; first compound 8 µM", "result": 0.292}, {"measurement": "relative viability", "setting": "SW 1573; first compound 0.253 µM", "result": 0.536}, {"measurement": "relative viability", "setting": "SW 1573; first compound 0.8 µM", "result": 0.625}, {"measurement": "relative viability", "setting": "SW 1573; first compound 2.53 µM", "result": 0.591}, {"measurement": "relative viability", "setting": "SW 1573; first compound 8 µM", "result": 0.542}, {"measurement": "relative viability", "setting": "NCI-H2023; first compound 0.253 µM", "result": 0.205}, {"measurement": "relative viability", "setting": "NCI-H2023; first compound 0.8 µM", "result": 0.269}, {"measurement": "relative viability", "setting": "NCI-H2023; first compound 2.53 µM", "result": 0.248}, {"measurement": "relative viability", "setting": "NCI-H2023; first compound 8 µM", "result": 0.231}, {"measurement": "relative viability", "setting": "PC-14; first compound 0.253 µM", "result": 0.199}, {"measurement": "relative viability", "setting": "PC-14; first compound 0.8 µM", "result": 0.189}, {"measurement": "relative viability", "setting": "PC-14; first compound 2.53 µM", "result": 0.24}, {"measurement": "relative viability", "setting": "PC-14; first compound 8 µM", "result": 0.226}, {"measurement": "relative viability", "setting": "ChaGo-K-1; first compound 0.253 µM", "result": 0.519}, {"measurement": "relative viability", "setting": "ChaGo-K-1; first compound 0.8 µM", "result": 0.551}, {"measurement": "relative viability", "setting": "ChaGo-K-1; first compound 2.53 µM", "result": 0.525}, {"measurement": "relative viability", "setting": "ChaGo-K-1; first compound 8 µM", "result": 0.538}, {"measurement": "relative viability", "setting": "NCI-H460; first compound 0.253 µM", "result": 0.402}, {"measurement": "relative viability", "setting": "NCI-H460; first compound 0.8 µM", "result": 0.476}, {"measurement": "relative viability", "setting": "NCI-H460; first compound 2.53 µM", "result": 0.64}, {"measurement": "relative viability", "setting": "NCI-H460; first compound 8 µM", "result": 0.649}, {"measurement": "relative viability", "setting": "HOP-62; first compound 0.253 µM", "result": 0.264}, {"measurement": "relative viability", "setting": "HOP-62; first compound 0.8 µM", "result": 0.239}, {"measurement": "relative viability", "setting": "HOP-62; first compound 2.53 µM", "result": 0.224}, {"measurement": "relative viability", "setting": "HOP-62; first compound 8 µM", "result": 0.212}, {"measurement": "relative viability", "setting": "NCI-H1355; first compound 0.253 µM", "result": 0.36}, {"measurement": "relative viability", "setting": "NCI-H1355; first compound 0.8 µM", "result": 0.367}, {"measurement": "relative viability", "setting": "NCI-H1355; first compound 2.53 µM", "result": 0.376}, {"measurement": "relative viability", "setting": "NCI-H1355; first compound 8 µM", "result": 0.341}, {"measurement": "relative viability", "setting": "EMC-BAC-2; first compound 0.253 µM", "result": 0.998}, {"measurement": "relative viability", "setting": "EMC-BAC-2; first compound 0.8 µM", "result": 0.929}, {"measurement": "relative viability", "setting": "EMC-BAC-2; first compound 2.53 µM", "result": 0.995}, {"measurement": "relative viability", "setting": "EMC-BAC-2; first compound 8 µM", "result": 0.801}, {"measurement": "relative viability", "setting": "LCLC-103H; first compound 0.253 µM", "result": 0.72}, {"measurement": "relative viability", "setting": "LCLC-103H; first compound 0.8 µM", "result": 0.664}, {"measurement": "relative viability", "setting": "LCLC-103H; first compound 2.53 µM", "result": 0.73}, {"measurement": "relative viability", "setting": "LCLC-103H; first compound 8 µM", "result": 0.651}, {"measurement": "relative viability", "setting": "NCI-H3122; first compound 0.253 µM", "result": 0.375}, {"measurement": "relative viability", "setting": "NCI-H3122; first compound 0.8 µM", "result": 0.536}, {"measurement": "relative viability", "setting": "NCI-H3122; first compound 2.53 µM", "result": 0.381}, {"measurement": "relative viability", "setting": "NCI-H3122; first compound 8 µM", "result": 0.386}, {"measurement": "relative viability", "setting": "NCI-H596; first compound 0.253 µM", "result": 0.85}, {"measurement": "relative viability", "setting": "NCI-H596; first compound 0.8 µM", "result": 1.46}, {"measurement": "relative viability", "setting": "NCI-H596; first compound 2.53 µM", "result": 1.06}, {"measurement": "relative viability", "setting": "NCI-H596; first compound 8 µM", "result": 0.95}, {"measurement": "relative viability", "setting": "NCI-H2405; first compound 0.253 µM", "result": 0.719}, {"measurement": "relative viability", "setting": "NCI-H2405; first compound 0.8 µM", "result": 0.817}, {"measurement": "relative viability", "setting": "NCI-H2405; first compound 2.53 µM", "result": 0.782}, {"measurement": "relative viability", "setting": "NCI-H2405; first compound 8 µM", "result": 0.632}, {"measurement": "relative viability", "setting": "NCI-H1975; first compound 0.253 µM", "result": 0.414}, {"measurement": "relative viability", "setting": "NCI-H1975; first compound 0.8 µM", "result": 0.334}, {"measurement": "relative viability", "setting": "NCI-H1975; first compound 2.53 µM", "result": 0.421}, {"measurement": "relative viability", "setting": "NCI-H1975; first compound 8 µM", "result": 0.356}, {"measurement": "relative viability", "setting": "LK-2; first compound 0.253 µM", "result": 0.312}, {"measurement": "relative viability", "setting": "LK-2; first compound 0.8 µM", "result": 0.177}, {"measurement": "relative viability", "setting": "LK-2; first compound 2.53 µM", "result": 0.36}, {"measurement": "relative viability", "setting": "LK-2; first compound 8 µM", "result": 0.187}]}]}
